These results are taken from ChEMBL document CHEMBL4350980, “Synthesis and structure-activity relationships of small-molecular di-basic esters, amides and carbamates as flaviviral protease inhibitors” (Eur J Med Chem, 2019).

SMILES strings stand for the structures. Active and inactive are the calls of the source. The calls are words filed in the database; no cut-off is given here.

Data set [1] concerns the target Genome polyprotein (dengue virus type 2) (UniProt P29990). As to the kind of experiment: Inhibition of dengue virus serotype 2 His-tagged NS2B cofactor domain-NS3 protease expressed in Escherichia coli at 1 mM using 2-Abz-Nle-Lys-Arg-Arg-Ser-(3-NO2)-Tyr-NH2 as substrate preincubated with enzyme for 15 mins followed by substrate addition measured for every 1 sec for 15 mins by fluorescence plate reader based HPLC analysis relative to control.

In data set [2] the target is Genome polyprotein (West Nile virus) (UniProt P06935). As to the kind of experiment: Inhibition of West Nile virus His-tagged NS2B cofactor domain-NS3 protease expressed in Escherichia coli at 1 mM using 2-Abz-Gly-Leu-Lys-Arg-Gly-Gly-(3-NO2)-Tyr-NH2 as substrate preincubated with enzyme for 15 mins followed by substrate addition measured for every 1 sec for 15 mins by fluorescence microplate reader based HPLC analysis relative to control.
Sequence of Genome polyprotein (West Nile virus) (P06935 whole entry, the tested form may be a part): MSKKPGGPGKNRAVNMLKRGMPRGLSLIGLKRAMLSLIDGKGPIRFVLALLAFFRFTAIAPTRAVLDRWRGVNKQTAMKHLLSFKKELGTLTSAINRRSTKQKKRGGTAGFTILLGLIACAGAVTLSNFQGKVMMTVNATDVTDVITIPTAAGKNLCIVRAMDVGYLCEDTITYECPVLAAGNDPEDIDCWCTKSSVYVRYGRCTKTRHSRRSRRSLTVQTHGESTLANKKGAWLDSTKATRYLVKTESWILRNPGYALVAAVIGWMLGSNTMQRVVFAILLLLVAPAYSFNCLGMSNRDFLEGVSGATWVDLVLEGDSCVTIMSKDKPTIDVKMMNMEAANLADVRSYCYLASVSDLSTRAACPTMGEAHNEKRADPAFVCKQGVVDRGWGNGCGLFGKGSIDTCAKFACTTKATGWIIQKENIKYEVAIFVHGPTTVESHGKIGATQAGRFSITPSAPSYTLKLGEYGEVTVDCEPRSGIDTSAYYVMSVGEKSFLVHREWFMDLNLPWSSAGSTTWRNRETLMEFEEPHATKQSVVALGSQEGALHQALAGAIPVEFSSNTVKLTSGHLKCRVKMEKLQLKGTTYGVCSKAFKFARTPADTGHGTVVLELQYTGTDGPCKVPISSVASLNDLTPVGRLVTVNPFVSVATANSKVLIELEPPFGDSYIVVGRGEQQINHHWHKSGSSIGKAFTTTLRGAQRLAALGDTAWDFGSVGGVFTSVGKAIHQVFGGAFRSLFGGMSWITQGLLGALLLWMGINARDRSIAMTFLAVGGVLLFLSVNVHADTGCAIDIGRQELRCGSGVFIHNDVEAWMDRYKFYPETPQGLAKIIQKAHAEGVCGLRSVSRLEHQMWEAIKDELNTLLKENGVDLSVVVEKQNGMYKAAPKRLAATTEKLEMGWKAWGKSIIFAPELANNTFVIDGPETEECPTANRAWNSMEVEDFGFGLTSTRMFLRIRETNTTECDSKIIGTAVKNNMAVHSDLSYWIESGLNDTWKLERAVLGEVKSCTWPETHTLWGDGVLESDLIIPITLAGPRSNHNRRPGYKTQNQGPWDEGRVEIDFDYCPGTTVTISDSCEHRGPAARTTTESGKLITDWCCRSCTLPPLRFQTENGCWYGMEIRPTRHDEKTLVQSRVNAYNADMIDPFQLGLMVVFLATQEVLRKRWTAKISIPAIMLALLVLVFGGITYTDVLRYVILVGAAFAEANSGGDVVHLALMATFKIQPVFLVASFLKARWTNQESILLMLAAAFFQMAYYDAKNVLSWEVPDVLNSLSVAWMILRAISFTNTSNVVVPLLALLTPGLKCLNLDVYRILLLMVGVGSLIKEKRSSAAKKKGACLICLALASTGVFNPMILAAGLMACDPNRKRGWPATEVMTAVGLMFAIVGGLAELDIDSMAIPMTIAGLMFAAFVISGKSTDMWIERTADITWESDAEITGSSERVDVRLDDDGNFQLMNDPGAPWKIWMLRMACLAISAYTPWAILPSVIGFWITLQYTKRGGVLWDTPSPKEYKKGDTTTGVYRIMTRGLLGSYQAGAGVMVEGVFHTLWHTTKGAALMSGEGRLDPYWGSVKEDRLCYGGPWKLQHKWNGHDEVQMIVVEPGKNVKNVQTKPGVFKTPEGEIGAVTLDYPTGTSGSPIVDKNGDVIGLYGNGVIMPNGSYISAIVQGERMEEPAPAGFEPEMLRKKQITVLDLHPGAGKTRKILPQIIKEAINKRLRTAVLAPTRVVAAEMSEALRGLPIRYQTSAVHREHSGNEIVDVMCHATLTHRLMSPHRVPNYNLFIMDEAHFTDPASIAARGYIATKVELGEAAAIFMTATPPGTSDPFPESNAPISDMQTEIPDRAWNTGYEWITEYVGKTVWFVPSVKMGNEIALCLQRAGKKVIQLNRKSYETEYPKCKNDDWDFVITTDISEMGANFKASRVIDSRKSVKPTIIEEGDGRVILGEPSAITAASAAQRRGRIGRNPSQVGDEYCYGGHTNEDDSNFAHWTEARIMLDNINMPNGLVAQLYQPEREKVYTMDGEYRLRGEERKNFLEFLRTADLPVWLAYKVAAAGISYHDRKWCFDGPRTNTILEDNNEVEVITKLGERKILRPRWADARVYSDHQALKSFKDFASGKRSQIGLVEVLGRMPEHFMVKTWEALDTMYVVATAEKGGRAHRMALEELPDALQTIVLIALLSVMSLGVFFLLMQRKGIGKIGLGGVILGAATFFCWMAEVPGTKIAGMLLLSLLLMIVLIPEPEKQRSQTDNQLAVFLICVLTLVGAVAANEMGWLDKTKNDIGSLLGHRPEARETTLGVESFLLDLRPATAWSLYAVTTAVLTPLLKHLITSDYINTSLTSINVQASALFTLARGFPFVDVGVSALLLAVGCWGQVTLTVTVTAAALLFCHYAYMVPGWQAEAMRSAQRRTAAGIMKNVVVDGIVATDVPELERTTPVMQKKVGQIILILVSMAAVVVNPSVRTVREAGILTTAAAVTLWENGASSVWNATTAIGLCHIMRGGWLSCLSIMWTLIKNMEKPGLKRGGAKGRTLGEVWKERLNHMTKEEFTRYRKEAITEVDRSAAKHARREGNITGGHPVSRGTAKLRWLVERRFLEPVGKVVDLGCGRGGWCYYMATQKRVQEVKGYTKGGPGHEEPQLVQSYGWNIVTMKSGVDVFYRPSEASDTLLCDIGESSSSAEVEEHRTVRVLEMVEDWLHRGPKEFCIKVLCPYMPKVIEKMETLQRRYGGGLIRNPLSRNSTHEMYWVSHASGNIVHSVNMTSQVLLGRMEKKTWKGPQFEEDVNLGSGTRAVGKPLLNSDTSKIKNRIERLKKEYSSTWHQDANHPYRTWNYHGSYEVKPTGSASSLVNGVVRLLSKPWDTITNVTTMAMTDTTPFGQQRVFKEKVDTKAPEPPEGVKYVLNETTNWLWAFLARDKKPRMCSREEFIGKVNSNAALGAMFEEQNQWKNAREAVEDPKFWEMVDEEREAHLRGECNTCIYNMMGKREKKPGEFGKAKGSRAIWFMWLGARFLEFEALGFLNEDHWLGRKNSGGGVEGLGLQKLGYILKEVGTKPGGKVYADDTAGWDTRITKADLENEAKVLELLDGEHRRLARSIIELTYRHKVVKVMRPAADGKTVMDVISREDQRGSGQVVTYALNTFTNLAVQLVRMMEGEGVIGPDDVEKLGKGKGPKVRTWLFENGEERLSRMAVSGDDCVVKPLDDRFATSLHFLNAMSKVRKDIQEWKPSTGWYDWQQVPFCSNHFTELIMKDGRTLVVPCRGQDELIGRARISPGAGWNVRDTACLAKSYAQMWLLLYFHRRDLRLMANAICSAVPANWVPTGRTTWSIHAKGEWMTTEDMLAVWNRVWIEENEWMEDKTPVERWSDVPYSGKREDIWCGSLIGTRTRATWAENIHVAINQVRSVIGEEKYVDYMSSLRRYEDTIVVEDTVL

For data set [3], the target named is T1, Prothrombin (Homo sapiens, UniProt P00734). Briefly: Inhibition of thrombin (unknown origin) at 500 uM using Boc-Val-Pro-Arg-AMC as substrate preincubated with enzyme for 15 mins followed by addition of substrate by fluorescence plate reader analysis relative to control.
The target of data set [4] is T2, Trypsin (Homo sapiens, UniProt P07477+P07478+P35030). As to the kind of experiment: Inhibition of trypsin (unknown origin) at 1 mM using Boc-Val-Pro-Arg-AMC as substrate preincubated with enzyme for 15 mins followed by addition of substrate by fluorescence plate reader analysis relative to control. Type of data set: protein assay.
Data set [5] deals with Genome polyprotein (dengue virus type 2) (UniProt P29990). Briefly: Inhibition of dengue virus serotype 2 His-tagged NS2B cofactor domain-NS3 protease expressed in Escherichia coli at 50 uM using 2-Abz-Nle-Lys-Arg-Arg-Ser-(3-NO2)-Tyr-NH2 as substrate preincubated with enzyme for 15 mins followed by substrate addition measured for every 1 sec for 15 mins by fluorescence plate reader based HPLC analysis relative to control.

The target of data set [6] is Genome polyprotein (West Nile virus) (UniProt P06935). As to the kind of experiment: Inhibition of West Nile virus His-tagged NS2B cofactor domain-NS3 protease expressed in Escherichia coli at 50 uM using 2-Abz-Gly-Leu-Lys-Arg-Gly-Gly-(3-NO2)-Tyr-NH2 as substrate preincubated with enzyme for 15 mins followed by substrate addition measured for every 1 sec for 15 mins by fluorescence microplate reader based HPLC analysis relative to control.

The target in data set [7] is T1, Prothrombin. Briefly: Inhibition of thrombin (unknown origin) at 25 uM using Boc-Val-Pro-Arg-AMC as substrate preincubated with enzyme for 15 mins followed by addition of substrate by fluorescence plate reader analysis relative to control.
Data set [8] concerns the target T2, Trypsin. As to the kind of experiment: Inhibition of trypsin (unknown origin) at 50 uM using Boc-Val-Pro-Arg-AMC as substrate preincubated with enzyme for 15 mins followed by addition of substrate by fluorescence plate reader analysis relative to control. Type of data set: protein assay.
The target in data set [9] is T1, Prothrombin. Briefly: Inhibition of thrombin (unknown origin) using Boc-Val-Pro-Arg-AMC as substrate preincubated with enzyme for 15 mins followed by addition of substrate by fluorescence plate reader analysis.
In data set [10] the target is T2, Trypsin. Briefly: Inhibition of trypsin (unknown origin) using Boc-Val-Pro-Arg-AMC as substrate preincubated with enzyme for 15 mins followed by addition of substrate by fluorescence plate reader analysis. Type of data set: protein assay.
Data set [11] has as its target Genome polyprotein (dengue virus type 2) (UniProt P29990). Briefly: Time-dependent inhibition of dengue virus serotype 2 His-tagged NS2B cofactor domain-NS3 protease expressed in Escherichia coli at 50 uM using 2-Abz-Nle-Lys-Arg-Arg-Ser-(3-NO2)-Tyr-NH2 as substrate preincubated with enzyme for 20 to 40 mins followed by substrate addition measured for every 1 sec for 15 mins by fluorescence plate reader based HPLC analysis.

Data set [12] shares this target. Briefly: Reversible covalent binding affinity at dengue virus serotype 2 His-tagged NS2B cofactor domain-NS3 protease expressed in Escherichia coli assessed as acyl-enzyme adduct formation at 100 uM incubated for 2 hrs by ESI-MS analysis.
The target is the same in data set [13]. Briefly: Reversible covalent binding affinity at dengue virus serotype 2 His-tagged NS2B cofactor domain-NS3 protease expressed in Escherichia coli assessed as acyl-enzyme adduct formation at 100 uM incubated for 24 hrs by ESI-MS analysis.
Another data set has as its system dengue virus type 2. As to the kind of experiment: Reversible covalent binding affinity at dengue virus serotype 2 His-tagged NS2B cofactor domain-NS3 protease S135A mutant expressed in Escherichia coli assessed as acyl-enzyme adduct formation at 100 uM incubated for 24 hrs by ESI-MS analysis.
The nature of data set [14]: Stability of compound in TRIS assay buffer at pH 7.5 to 9. Type of data set: physicochemical.
Data set [15] is described as follows: Stability of compound in phosphate buffer at pH 7.5 to 11. Type of data set: physicochemical.
Data set [16] deals with Genome polyprotein (dengue virus type 2) (UniProt P29990). As to the kind of experiment: Reversible covalent binding affinity at dengue virus serotype 2 His-tagged NS2B cofactor domain-NS3 protease expressed in Escherichia coli assessed as acyl-enzyme adduct formation at 100 uM incubated for 5 to 24 hrs by ESI-MS analysis.
The target is the same in data set [17]. Briefly: Time-dependent inhibition of dengue virus serotype 2 His-tagged NS2B cofactor domain-NS3 protease expressed in Escherichia coli at 200 uM using 2-Abz-Nle-Lys-Arg-Arg-Ser-(3-NO2)-Tyr-NH2 as substrate preincubated with enzyme for 20 to 40 mins followed by substrate addition measured for every 1 sec for 15 mins by fluorescence plate reader based HPLC analysis.

In the case of `CN(C)C(=O)Oc1ccc(NC(=N)N)cc1C(=O)Nc1ccc(CN)cc1`, the inhibition was determined as 56% in data set [1], 76.1% in [2], 24.3% against Prothrombin [3] and 19.3% on Trypsin [4].

As to `N=C(N)Nc1ccc(OC(=O)c2ccc(N)cc2)cc1`, the inhibition was 45.4% in data set [5], under 5% in data set [6], 76.7% against Prothrombin [7] and 101% against Trypsin [8]. The IC50 came to 17600 nM against Prothrombin [9] and 2.78 nM against Trypsin [10]. Further, the TDI entry in data set [11] was “Active”. Also, the result (in [12]; in the data set with dengue virus type 2) was inactive. Also, the outcome in data set [13] was Active.

As for `CN(C)C(=O)Oc1cc(NC(=N)N)ccc1C(=O)Nc1ccc(CN)cc1`, the inhibition was determined as 74.4% in data set [1], 73.3% in [2], 12.4% at Prothrombin [3] and 43.7% on Trypsin [4].

As to `N=C(N)NCCCCC(=O)Oc1ccc(NC(=N)N)cc1`, the inhibition was 4.6% in [5], under 5% in data set [6], 72.5% on Prothrombin [7] and 65.9% against Trypsin [8].

For `CN(C(=O)Oc1ccc(CN)cc1)c1ccc(N)cc1`, the inhibition was determined as 22.9% in data set [1], 59.3% in data set [2], 46.9% at Prothrombin [3] and 95.6% against Trypsin [4].

In the case of `N=C(N)Nc1ccc(NC(=O)c2ccc(NC(=N)N)cc2)cc1`, the inhibition in [5] is 23.2%; in data set [6] it was 17.9%; on Prothrombin [7], 23.9%; against Trypsin [8], 87.2%. In addition, the TDI result in data set [11] was “inactive”. The Stability entry in [14] and in [15] was “Stable” in each case. For the same molecule, the outcome in [16] was inactive.

Regarding `N=C(N)Nc1ccc(C(=O)Oc2ccc(CN)cc2)cc1`, the inhibition in [5] stood at 40.1%; in [6], 36.5%; against Prothrombin [7], 92.5%; against Trypsin [8], 101%. Further, the IC50 against Prothrombin [9] came out at 530 nM; on Trypsin [10], 1.56 nM. In [11], the TDI entry was “Active”.

Regarding `N=C(N)Nc1ccc(C(=O)Nc2cccc(NC(=N)N)c2)cc1`, the inhibition in data set [5] was 36.8%; in data set [6] it was under 5%; against Prothrombin [7], 16.4%; on Trypsin [8] it was 94.6%. Further, at Trypsin [10], the 50% inhibitory concentration (IC50) was 23900 nM.

`N=C(N)NCCCCOC(=O)c1ccc(NC(=N)N)cc1`: the inhibition in data set [5] came out at 49%; in data set [6], 17.1%; against Prothrombin [7], 27.3%; against Trypsin [8] it was 84%. Besides, the IC50 on Trypsin [10] was 8270 nM.

As for `N=C(N)Nc1ccc(C(=O)Oc2cccc(NC(=N)N)c2)cc1`, the inhibition amounted to 51.3% in [5], 17.5% in data set [6], 100% at Prothrombin [7] and 100% against Trypsin [8].

`CN(C(=O)Oc1ccc(CN)cc1)c1ccc(CN)cc1`: the inhibition in data set [1] worked out at 31.3%; in [2] it was 62.9%; against Prothrombin [3], 12.2%; against Trypsin [4], 43.9%.

On to `N=C(N)NCCCC(=O)Oc1ccc(NC(=N)N)cc1`, for which the inhibition in data set [5] is 4.2%; in data set [6], under 5%; on Prothrombin [7] it was 13.2%; at Trypsin [8], 18.3%.

Turning to `CN(C)C(=O)COC(=O)Cc1ccc(OC(=O)c2ccc(NC(=N)N)cc2)cc1` [CAMOSTAT], the inhibition is 19.6% in [5], 12.6% in [6], 94% on Prothrombin [7] and 100% against Trypsin [8]. Also, the IC50 at Trypsin [10] stood at 3.5 nM.

As for `N=C(N)Nc1ccc(NC(=O)Oc2ccc(N)cc2)cc1`, the inhibition in data set [5] worked out at 52%; in data set [6], 61.9%; on Prothrombin [7], 12.1%; on Trypsin [8], 101%; in data set [1], 52%; in data set [2], 61.9%. Also, the inhibition stood at 12.1% on Prothrombin [3] and 101% on Trypsin [4]. The IC50 on Trypsin [10] came out at 46300 nM. For the same molecule, the TDI entry in data set [17] is “inactive”. In addition, in [16], the result was inactive.

In the case of `CN(C(=O)Oc1ccc(N)cc1)c1ccc(N)cc1`, the inhibition amounted to 29.8% in [1], 68% in [2], 72.7% against Prothrombin [3] and 95.9% at Trypsin [4].

`N=C(N)Nc1ccc(C(=O)Oc2ccc(N)cc2)cc1`: the inhibition in data set [5] was 8.8%; in [6], under 5%; against Prothrombin [7], 97.1%; at Trypsin [8], 102%. Further, the values for the IC50 against Prothrombin [9] and at Trypsin [10] were 800 nM and 28 nM, respectively. Moreover, the Stability entry in data set [14] and in [15] was “Stable” in each case.

On to `Nc1ccc(NC(=O)Oc2ccc(N)cc2)cc1`, for which the inhibition came out at 33.7% in data set [1], 72.8% in [2], 83.3% on Prothrombin [3] and 99.2% against Trypsin [4].

With `N=C(N)NCc1ccc(NC(=O)Oc2ccc(N)cc2)cc1`, the inhibition in data set [1] is 60.8%; in data set [2], 68.8%; at Prothrombin [3], 44.4%; on Trypsin [4], 98.4%.

`CN(C)C(=O)Oc1cc(NC(=N)N)ccc1NC(=O)c1ccc(NC(=N)N)cc1`: the inhibition in [1] stood at 20.2%; in data set [2] it was 23.9%; against Prothrombin [3] it was 67.8%; on Trypsin [4], 99.2%.

Turning to `N=C(N)NCCCOC(=O)c1ccc(NC(=N)N)cc1`, the inhibition in data set [5] is 56.8%; in [6], under 5%; against Prothrombin [7], 22.8%; at Trypsin [8] it was 78.9%. This molecule returned an IC50 against Trypsin [10] of 9840 nM. In addition, the Stability entry in data set [14] and in data set [15] was “Stable” each time.

As usually defined, the inhibition is the relative decrease from the control value, in per cent. For orientation: IC50 means the midpoint of a concentration-inhibition curve. Read a high IC50 as a need for much substance.
